Measurements: US7951548B2, “IL-13 production inhibitor” (Takeda Pharmaceutical Company Limited, priority 2005, dated 2011)

Legend:
[1] = tested on: rat peritoneal mast cells; experiment: Expression of IL-13 in rat peritoneal mast cells (TaqMan PCR, GAPDH corrected); format: cell-based
Method: Rat peritoneal mast cells (hereinafter RPMC) were prepared as follows. Ice-chilled mast cell medium (hereinafter MCM; 150 mM NaCl, 3.7 mM KCl, 3.0 mM NaH2PO4, 3.5 mM KH2PO4, 5.6 mM (D)-Glucose, 0.1% bovine serum albumin (hereinafter BSA), 0.1% gelatin, 10 U/ml heparin, pH 6.8) was injected into the peritoneal cavity in about 40 ml/animal. After some massage of the rat abdominal region for about 2 minutes, the peritoneal cavity was opened along the median line to drain the ascitic fluid. The ascetic fluid prepared was filtered through a cell strainer (Becton Dickinson) and centrifuged at 50×g for 7 minutes. The cells precipitated were suspended in MCM and centrifuged again at 50×g for 7 minutes. After the precipitated cells were resuspended in MCM, the suspension was layered on 2 ml of 32% (w/v) BSA solution (dissolved in 0.9% NaCl), which was allowed to stand at room temperature for 20 minutes. After centrifugation was conducted at ×300 g for 15 minutes at room temperature, the cells in the interphase between MCM and BSA solution were discarded and the precipitated cells were suspended in MCM. The suspension was centrifuged at ×300 g for 5 minutes to wash the cells twice. The precipitated cells were suspended in assay buffer (RPMI 1640 medium (Invitrogen), 0.1% BSA) and the cells were provided for the following experiment. […] RPMC was activated as follows. RPMC was suspended in assay buffer and 10 μg/ml of monoclonal mouse antibody DNP-IgE (Yamasa) was added thereto. The mixture was allowed to stand for 30 minutes on ice for passive sensitization. After centrifugation at ×300 g for 5 minutes, the precipitated cells were washed 3 times with assay buffer. RPMC suspended in assay buffer was dispensed into a 96 well V-bottomed plate in 2×10^5/well. The assay was performed at n=3 under the respective reaction conditions. After a plate was kept warm at 37° C. for 5 minutes, lysoPS (Sigma) of 3 μM in a final concentration or DNP-BSA (Carbiochem) of 100 ng/ml in a final concentration was added depending on the assay conditions and the plate was allowed to stand at 37° C. in a 5% CO2 incubator. The plate was ice-cooled 2, 4, 6 and 8 hours after to terminate the activation of RPMC. Centrifugation was performed at ×300 g for 5 minutes and the total RNA was extracted from the cells precipitated using RNeasy Mini Kit (Qiagen) in accordance with the protocol attached. The obtained total RNA was concentrated and dissolved in RNase-free H2O in accordance with the protocol attached. Next, using 250 ng of the total RNA, reverse transcription was performed by the following procedure using SuperScript II ReverseTranscriptase (Invitrogen) to prepare single-stranded cDNA. After 0.5 μg of Oligo (dT) 12-18 primer (Invitrogen) and 1 μl of 10 mM dNTP (Invitrogen) were added to the total RNA solution and then RNase-free H2O was added to make the whole volume 12 μl, incubation was performed at 70° C. for 10 minutes followed by ice cooling for a minute. After adding 4 μl of 5× First-Strand Buffer (attached to SuperScript II ReverseTranscriptase), 2 μl of 0.1M DTT (attached to SuperScript II ReverseTranscriptase), 1 μl of RNaseOUT (Invitrogen) and 1 μl of SuperScript II ReverseTranscriptase, incubation was performed at 42° C. for 50 minutes and then at 70° C. for 15 minutes, followed by ice cooling for 5 minutes. The thus prepared cDNA was purified using Ethachinmate in accordance with the protocol attached and dissolved in Tris-EDTA Buffer (Fluka).
In TaqMan PCR below, rIL-13-tF (SEQ ID NO: 24) and rIL-13-tR (SEQ ID NO: 25) were used as primers and rIL-13-tP (SEQ ID NO: 26) as a probe for quantification of rat IL-13 (interleukin-13) and rIL-13 standard (SEQ ID NO: 27) was used as a standard. TaqMan Rodent GAPDH Control Reagents VIC Probe (Applied Biosystems) were used as primers and a probe for quantification of GAPDH, and rGAPDH standard (SEQ ID NO: 28) was used as a standard. […]

[2] = target: T1, GPR34 (Homo sapiens, UniProt Q9UPC5); experiment: MAPK activation: phosphorylation of ERK1/2 in human GPR34-expressed CHO cells (western blotting); format: cell-based; settings: human GPR34-expressed CHO cells
T1 construct: expressed in transfected cells
Method: The cells were prepared as described below. Human GPR34-expressed CHO cells were scraped off with 0.05% trypsin-EDTA (GIBCO) and suspended in a medium (MEM-α (GIBCO), supplemented with 10% FBS (GIBCO) and penicillin/streptomycin (BIOWHITTAKER)). After centrifugation, the cells precipitated were suspended in the medium in 2×10^5 cells/ml and a 1 mL aliquot was plated on a 35 mm cell culture dish. After incubation overnight in a CO2 incubator, the medium was aspirated and washed in PBS. Then 1 mL of serum-free medium (MEM-α (GIBCO), supplemented with penicillin/streptomycin (BIOWHITTAKER)) and incubation was performed in a CO2 incubator. Pertussis toxin (hereinafter PTX) was added in a final concentration of 0.1 μg/mL 20 hours before the assay.
The cells were activated as follows. The medium was aspirated and washed in PBS. Thereafter, 500 μL of assay buffer (HBSS (GIBCO), 10 mM HEPES (Dojin Chemical Laboratory)) was added to perform preincubation for 15 minutes at 37° C. The lysoPS solution and […] of PECGF ([…] cell growth factor) solution as a positive control were added. After the mixture was incubated at 37° C., the reaction was terminated by quenching. The assay buffer was aspirated and washed in PBS. Then, 1×SDS sample buffer/DTT was added to the cells to recover the cells. After ultrasonication for 15 seconds, heating at 95° C. for 5 minutes was followed by quenching.
Detection by SDS-PAGE and western blotting were performed as follows. After separation using 10% Bis-Tris gel (Invitrogen), the gel was transferred to Immuno-Blot PVDF Membrane (Bio-Rad). The membrane was blocked with Block Ace (Dai-Nippon Pharmaceutical) and incubated at room temperature for an hour with a primary antibody (Phospho-p42/p44 MAP Kinase (Thr202/Thr204) Antibody (CST) or p42/p44 MAP Kinase Antibody (CST)) and further incubated at room temperature for an hour using a secondary antibody (Anti-rabbit IgG (CST)). The membrane after the antibody reaction was visualized by chemiluminescence using ECL PLUS (Amersham Biosciences). […]

[3] = antigen (DNP-BSA 100 ng/ml)+lysoPS 3 μM, 4 hours after the stimulation
[4] = antigen+lysoPS 3 μM, 6 after the stimulation
[5] = antigen+lysoPS 3 μM, 8 hours after the stimulation

T1 sequence (Q9UPC5 whole entry): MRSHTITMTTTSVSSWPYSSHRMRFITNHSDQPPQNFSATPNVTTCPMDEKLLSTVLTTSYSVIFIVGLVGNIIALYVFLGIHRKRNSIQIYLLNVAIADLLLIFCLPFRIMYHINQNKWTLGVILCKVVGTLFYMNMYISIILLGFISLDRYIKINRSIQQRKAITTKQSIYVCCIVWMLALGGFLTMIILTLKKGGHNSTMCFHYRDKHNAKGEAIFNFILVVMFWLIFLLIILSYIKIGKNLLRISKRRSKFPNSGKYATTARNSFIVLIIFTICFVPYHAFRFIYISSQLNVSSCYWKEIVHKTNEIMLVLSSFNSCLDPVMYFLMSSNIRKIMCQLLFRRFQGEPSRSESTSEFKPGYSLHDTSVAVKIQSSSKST

lysophosphatidylserine [lysoPS]
expression level of IL-13 after GAPDH correction, compared to stimulation by the antigen alone [1, 3]: about 36 times | expression level of IL-13 after GAPDH correction, compared to the level without any stimulation [1, 3]: about 27 times | expression level of IL-13, compared to stimulation by the antigen alone [1, 4]: about 19 times | expression level of IL-13, compared to the level without any stimulation [1, 4]: about 13 times | expression level of IL-13 after GAPDH correction, compared to stimulation by the antigen alone [1, 5]: about 27 times | expression level of IL-13 after GAPDH correction, compared to the level without any stimulation [1, 5]: about 13 times | expression level of IL-13 (in words) ([1]; stimulated by the antigen+lysoPS): marked increase in expression | phosphorylation of ERK1/2 30 minutes after the stimulation [2]: the phosphorylation was noted | time of maximum response of ERK1/2 phosphorylation after the stimulation [2]: about 5 minutes
